Counter-ions that a name gives are not always drawn.

Holding throughout (format): cell-based, human
Experiment [1] deals with induced pluripotent stem cells (iPS cells, 201B7 strain). The experiment is described as follows: Proliferation promoting effect of ethanolamine analogs, laminin 511 fragment, single cell-seeding. Conditions: 1 week. The method, then:
(§1) In the following Examples, proliferation effects of various test compounds on human pluripotent stem cells were evaluated. As human pluripotent stem cells, induced pluripotent stem cells (iPS cells, 201B7 strain) purchased from iPS Academia Japan, Inc. were used, unless particularly specified. Cell culture was performed using a culture vessel (Becton, Dickinson and Company, Falcon culture petri dish or Falcon culture plate) coated with a basal lamina matrix under the conditions of 5% CO2/37° C.
(§2) Various test compounds were added to a medium having the “E8” composition (disclosed in Nature Methods, 2011, 8, 424-429, which is incorporated herein by reference in its entirety) considered at present to be the minimum composition for cultivating human pluripotent stem cells at given concentrations and used for culture, and the effects thereof were studied. The medium was prepared by using Essential 8 (Life Technologies: A14666SA) considered to have the “E8” composition or a medium formulated to have an equivalent composition.
(§3) After the culture, the cell number was counted to examine the effect of O-phosphoryl ethanolamine. The culture period was set to 1 week. 13,000 viable cells per well were used for single cell-seeding. As a basal lamina matrix, a fragment containing the active domain of laminin 511, which was purchased from Osaka University, was applied at 4.8 μg/well. Y-27632 was added (final concentration 10 μM, Nacalai Tesque: 08945-84) to the medium used for seeding. The cells were cultured in a medium free of Y-27632 from the following day. The number of viable cells was measured by Cell Viability autoanalyzer ViCELL™ XR (BECKMAN COULTER).
as §3, with “2-(methylamino)ethanol.” for “O-phosphoryl ethanolamine.”
as §3, with “2-dimethylaminoethanol.” for “O-phosphoryl ethanolamine.”
After the culture, the cell number was counted to examine the effect of ethanolamine hydrochloride. The culture period was set to 1 week. 13,000 viable cells per well were used for single cell-seeding. As a basal lamina matrix, a fragment containing the active domain of laminin 511, which was purchased from Osaka University, was applied at 4.8 μg/well. Y-27632 was added (final concentration 10 μM, Nacalai Tesque: 08945-84) to the medium used for seeding. […] The number of viable cells was measured by Cell Viability autoanalyzer ViCELL™ XR (BECKMAN COULTER).

Experiment [2] has the same test system. The experiment is described as follows: Proliferation promoting effect of ethanolamine, culture using matrigel. Conditions: 6, 30, 150, 750 or 3,750 μM, 8 days, single cell-seeding. As to the method:
as §1, §2
Ethanolamine (Sigma-Aldrich Co. LLC: E0135) was added at a final concentration of 6, 30, 150, 750 or 3,750 μM, and the medium was used for culture immediately after preparation, and the effect of ethanolamine was examined by studying the cell numbers after culture. The culture period was 8 days. 100,000 cells per 1 well were used for single cell-seeding. […]

Experiment [3] shares this test system. The experiment is described as follows: Proliferation promoting effect of ethanolamine and combination with albumin, laminin 511 fragment, single cell-seeding. Conditions: 1 week. As to the method:
as §1, §2
Ethanolamine (Sigma-Aldrich Co. LLC: E0135) was added at a final concentration of 6, 30, 150, 750 or 3,750 μM, and the medium was used for culture immediately after preparation, and the effect of ethanolamine was examined by studying the cell numbers after culture. The culture period was 1 week. […] 13,000 viable cells per 1 well were used for single cell-seeding. As a basal lamina matrix, a fragment containing the active domain of laminin 511, which was purchased from Osaka University, was applied at 5 μg/well. Y-27632 was added (final concentration 10 μM, Nacalai Tesque: 08945-84) to the medium used for seeding. The cells were cultured in a medium free of Y-27632 from the following day. The number of viable cells was measured by Trypan Blue (Life Technologies: 15250-061) staining using a hemocytometer.

Experiment [4] has the same test system. The experiment is described as follows: Influence of oleic acid carried by albumin on cell proliferation. Conditions: oleic acid carried by albumin 2.2, 6.5, 21.7 mg/g (20, 60, 200 μM in medium); albumin 2.6 g/l, ethanolamine 30 μM; one week. The method, then: as §1
Furthermore, a suspension of activated carbon (5 g, manufactured by Wako Pure Chemical Industries, Ltd.) heated at 200° C. for 30 min in advance in phosphate buffer (20 ml) was added to 100 ml. After stirring at 4° C. for 3 hr, the mixture was centrifuged at 4° C., 11,900 rpm for 20 min. […] Ethanolamine (final concentration 30 μM) was added to each medium. Using each medium, the cells were cultured for one week, and the cell number after culture was confirmed to study the influence of oleic acid. 13,000 viable cells per well were used for single cell-seeding. As a basal lamina matrix, a fragment containing the active domain of laminin 511, which was purchased from Osaka University, was applied at 4.8 μg/well. […] The number of viable cells was measured by Cell Viability autoanalyzer ViCELL™ XR (BECKMAN COULTER).

Setting [5] is: 6, 30, 150 or 750 μM in medium with albumin 2.6 g/l.

Consider `CNCCO` [2-(methylamino)ethanol], for which the “cell number relative to non-addition group (0 μM)” value in experiment [1] (setting [5]) is reported as “proliferation-promoting effect in a relatively wide concentration range”.

As to `CN(C)CCO` [2-dimethylaminoethanol], the “cell number relative to non-addition group (0 μM)” value in experiment [1] (setting [5]) is listed as “proliferation promoting effect in a relatively wide concentration range”; in experiment [1] (high concentration range, medium with albumin 2.6 g/l), “proliferation suppressive effect appears in a high concentration range”. On to `NCCOP(=O)(O)O` [O-phosphoryl ethanolamine], for which the “cell number relative to non-addition group (0 μM)” value in experiment [1] (setting [5]) is “proliferation-promoting effect in a relatively wide concentration range”. Same read-out and setting: with `NCCO` [ethanolamine hydrochloride] the entry was “proliferation-promoting effect in a relatively wide concentration range”. For the compound `NCCO` [ethanolamine], the “cell number after culture” value in experiment [2] was “proliferation promoting effect in a wide concentration range”. Besides, the “cell number relative to non-addition group (0 μM)” value is “proliferation-promoting effect in a relatively wide concentration range” in experiment [3] (6, 30, 150, 750 or 3,750 μM, without albumin); “combination with albumin further enhances the proliferation promoting effect” in experiment [3] (6-3,750 μM combined with albumin 2.6 g/l); “resists a proliferation suppressive effect in a high concentration range, and shows a proliferation promoting effect” in experiment [3] (high concentration range combined with albumin 2.6 g/l); “proliferation suppressive effect conversely appears in a high concentration range” in experiment [3] (high concentration range, without albumin). Turning to `CCCCCCCC/C=C\CCCCCCCC(=O)O` [oleic acid], the “cell number after culture” value in experiment [4] was “cell proliferation was suppressed along with an increasing amount of oleic acid carried by albumin”.
